system: recombinant NL4-3 virus (Renilla luciferase in nef, Gag P373S; NLRluc) in MT-2 cells; experiment: whole plant or invertebrate; format: cell-based, HIV; details: Renilla, NL43, luciferase activity in cells infected for 4-5 days with NLRluc recombinants, serial dilutions of inhibitor; class symbols (key in Table 1); read-out: EC50
Method: MT-2 cells and 293T cells were obtained from the NIH AIDS Research and Reference Reagent Program. MT-2 cells were propagated in RPMI 1640 media supplemented with 10% heat inactivated fetal bovine serum, […]. The 293T cells were propagated in DMEM media supplemented with 10% heat inactivated fetal bovine serum (FBS), 100 units/ml penicillin G and 100 μg/ml streptomycin. The proviral DNA clone of NL4-3 was obtained from the NIH AIDS Research and Reference Reagent Program. A recombinant NL4-3 virus, in which a section of the nef gene from NL4-3 was replaced with the Renilla luciferase gene, was used as a reference virus. In addition, residue Gag P373 was converted to P373S. Briefly, the recombinant virus was prepared by transfection of the altered proviral clone of NL4-3. Transfections were performed in 293T cells using LipofectAMINE PLUS from Invitrogen (Carlsbad, Calif.), according to manufacturer's instruction. The virus was titered in MT-2 cells using luciferase enzyme activity as a marker. Luciferase was quantitated using the Dual Luciferase kit from Promega (Madison, Wis.), with modifications to the manufacturer's protocol. The diluted Passive Lysis solution was pre-mixed with the re-suspended Luciferase Assay Reagent and the re-suspended Stop & Glo Substrate (2:1:1 ratio). Fifty (50) μL of the mixture was added to each aspirated well on assay plates and luciferase activity was measured immediately on a Wallac TriLux (Perkin-Elmer). Antiviral activities of inhibitors toward the recombinant virus were quantified by measuring luciferase activity in cells infected for 4-5 days with NLRluc recombinants in the presence serial dilutions of the inhibitor. Table 1 is the key for the data in Table 2.

| Compound | EC50 |
| --- | --- |
| C=C(C)[C@@H]1CC[C@]2(NC(=O)NC3(CN(CC)CC)CC3)CC[C@]3(C)[C@H](CC[C@@H]4[C@@]5(C)CC=C(c6ccc(C(=O)O)cc6)C(C)(C)[C@@H]5CC[C@]43C)[C@@H]12 [Example 7, 4-((1R,3aS,5aR,5bR,7aR,11aS,11bR,13aR,13bR)-3a-(3-(1-((diethylamino)methyl)cyclopropyl)ureido)-5a,5b,8,8,11a-pentamethyl-1-(prop-1-en-2-yl)-2,3,3a,4,5,5a,5b,6,7,7a,8,11,11a,11b,12,13,13a,13b-octadecahydro-1H-cyclopenta[a]chrysen-9-yl)benzoic acid] | < 100 nM |
| C=C(C)[C@@H]1CC[C@]2(NC(=O)NC3(CN4CCCCC4)CC3)CC[C@]3(C)[C@H](CC[C@@H]4[C@@]5(C)CC=C(c6ccc(C(=O)O)cc6)C(C)(C)[C@@H]5CC[C@]43C)[C@@H]12 [Example 8, 4-((1R,3aS,5aR,5bR,7aR,11aS,11bR,13aR,13bR)-5a,5b,8,8,11a-pentamethyl-3a-(3-(1-(piperidin-1-ylmethyl)cyclopropyl)ureido)-1-(prop-1-en-2-yl)-2,3,3a,4,5,5a,5b,6,7,7a,8,11,11a,11b,12,13,13a,13b-octadecahydro-1H-cyclopenta[a]chrysen-9-yl)benzoic acid] | < 100 nM |
| C=C(C)[C@@H]1CC[C@]2(NC(=O)NCCCN(C)C)CC[C@]3(C)[C@H](CC[C@@H]4[C@@]5(C)CC=C(c6ccc(C(=O)O)cc6)C(C)(C)[C@@H]5CC[C@]43C)[C@@H]12 [Example 10, 4-((1R,3aS,5aR,5bR,7aR,11aS,11bR,13aR,13bR)-3a-(3-(3-(dimethylamino)propyl)ureido)-5a,5b,8,8,11a-pentamethyl-1-(prop-1-en-2-yl)-2,3,3a,4,5,5a,5b,6,7,7a,8,11,11a,11b,12,13,13a,13b-octadecahydro-1H-cyclopenta[a]chrysen-9-yl)benzoic acid] | < 100 nM |
| C=C(C)[C@@H]1CC[C@]2(NC(=O)NCCCN3CCOCC3)CC[C@]3(C)[C@H](CC[C@@H]4[C@@]5(C)CC=C(c6ccc(C(=O)O)cc6)C(C)(C)[C@@H]5CC[C@]43C)[C@@H]12 [Example 11, 4-((1R,3aS,5aR,5bR,7aR,11aS,11bR,13aR,13bR)-5a,5b,8,8,11a-pentamethyl-3a-(3-(3-morpholinopropyl)ureido)-1-(prop-1-en-2-yl)-2,3,3a,4,5,5a,5b,6,7,7a,8,11,11a,11b,12,13,13a,13b-octadecahydro-1H-cyclopenta[a]chrysen-9-yl)benzoic acid] | < 100 nM |
| C=C(C)[C@@H]1CC[C@]2(NC(=O)NCCCn3ccnc3C)CC[C@]3(C)[C@H](CC[C@@H]4[C@@]5(C)CC=C(c6ccc(C(=O)O)cc6)C(C)(C)[C@@H]5CC[C@]43C)[C@@H]12 [Example 12, 4-((1R,3aS,5aR,5bR,7aR,11aS,11bR,13aR,13bR)-5a,5b,8,8,11a-pentamethyl-3a-(3-(3-(2-methyl-1H-imidazol-1-yl)propyl)ureido)-1-(prop-1-en-2-yl)-2,3,3a,4,5,5a,5b,6,7,7a,8,11,11a,11b,12,13,13a,13b-octadecahydro-1H-cyclopenta[a]chrysen-9-yl)benzoic acid] | < 100 nM |
| C=C(C)[C@@H]1CC[C@]2(NC(=O)NCCc3c[nH]cn3)CC[C@]3(C)[C@H](CC[C@@H]4[C@@]5(C)CC=C(c6ccc(C(=O)O)cc6)C(C)(C)[C@@H]5CC[C@]43C)[C@@H]12 [Example 13, 4-((1R,3aS,5aR,5bR,7aR,11aS,11bR,13aR,13bR)-3a-(3-(2-(1H-imidazol-4-yl)ethyl)ureido)-5a,5b,8,8,11a-pentamethyl-1-(prop-1-en-2-yl)-2,3,3a,4,5,5a,5b,6,7,7a,8,11,11a,11b,12,13,13a,13b-octadecahydro-1H-cyclopenta[a]chrysen-9-yl)benzoic acid] | < 100 nM |
| C=C(C)[C@@H]1CC[C@]2(NC(=O)NCCCn3ccnc3)CC[C@]3(C)[C@H](CC[C@@H]4[C@@]5(C)CC=C(c6ccc(C(=O)O)cc6)C(C)(C)[C@@H]5CC[C@]43C)[C@@H]12 [Example 14, 4-((1R,3aS,5aR,5bR,7aR,11aS,11bR,13aR,13bR)-3a-(3-(3-(1H-imidazol-1-yl)propyl)ureido)-5a,5b,8,8,11a-pentamethyl-1-(prop-1-en-2-yl)-2,3,3a,4,5,5a,5b,6,7,7a,8,11,11a,11b,12,13,13a,13b-octadecahydro-1H-cyclopenta[a]chrysen-9-yl)benzoic acid] | < 100 nM |
| C=C(C)[C@@H]1CC[C@]2(NC(=O)N3CCCCC3)CC[C@]3(C)[C@H](CC[C@@H]4[C@@]5(C)CC=C(c6ccc(C(=O)O)cc6)C(C)(C)[C@@H]5CC[C@]43C)[C@@H]12 [Example 15, 4-((1R,3aS,5aR,5bR,7aR,11aS,11bR,13aR,13bR)-5a,5b,8,8,11a-pentamethyl-3a-(piperidine-1-carboxamido)-1-(prop-1-en-2-yl)-2,3,3a,4,5,5a,5b,6,7,7a,8,11,11a,11b,12,13,13a,13b-octadecahydro-1H-cyclopenta[a]chrysen-9-yl)benzoic acid] | < 100 nM |
| C=C(C)[C@@H]1CC[C@]2(NC(=O)NCC(=O)O)CC[C@]3(C)[C@H](CC[C@@H]4[C@@]5(C)CC=C(c6ccc(C(=O)O)cc6)C(C)(C)[C@@H]5CC[C@]43C)[C@@H]12 [Example 16, 4-((1R,3aS,5aR,5bR,7aR,11aS,11bR,13aR,13bR)-3a-(3-(carboxymethyl)ureido)-5a,5b,8,8,11a-pentamethyl-1-(prop-1-en-2-yl)-2,3,3a,4,5,5a,5b,6,7,7a,8,11,11a,11b,12,13,13a,13b-octadecahydro-1H-cyclopenta[a]chrysen-9-yl)benzoic acid] | < 100 nM |
| C=C(C)[C@@H]1CC[C@]2(NC(=O)N[C@@H](C)C(=O)O)CC[C@]3(C)[C@H](CC[C@@H]4[C@@]5(C)CC=C(c6ccc(C(=O)O)cc6)C(C)(C)[C@@H]5CC[C@]43C)[C@@H]12 [Example 17, 4-((1R,3aS,5aR,5bR,7aR,11aS,11bR,13aR,13bR)-3a-(3-((S)-1-carboxyethyl)ureido)-5a,5b,8,8,11a-pentamethyl-1-(prop-1-en-2-yl)-2,3,3a,4,5,5a,5b,6,7,7a,8,11,11a,11b,12,13,13a,13b-octadecahydro-1H-cyclopenta[a]chrysen-9-yl)benzoic acid] | < 100 nM |
| C=C(C)[C@@H]1CC[C@]2(NC(=O)N[C@H](C)C(=O)O)CC[C@]3(C)[C@H](CC[C@@H]4[C@@]5(C)CC=C(c6ccc(C(=O)O)cc6)C(C)(C)[C@@H]5CC[C@]43C)[C@@H]12 [Example 19, 4-((1R,3aS,5aR,5bR,7aR,11aS,11bR,13aR,13bR)-3a-(3-((R)-1-carboxyethyl)ureido)-5a,5b,8,8,11a-pentamethyl-1-(prop-1-en-2-yl)-2,3,3a,4,5,5a,5b,6,7,7a,8,11,11a,11b,12,13,13a,13b-octadecahydro-1H-cyclopenta[a]chrysen-9-yl)benzoic acid] | < 100 nM |

same assay, conditions: Renilla, NL43, luciferase activity in cells infected for 4-5 days with NLRluc recombinants, serial dilutions of inhibitor; numeric values; read-out: EC50

| Compound | EC50 |
| --- | --- |
| C=C(C)[C@@H]1CC[C@]2(NC(=O)N3CCN([C@@H]4COC[C@H]4N(C)C)CC3)CC[C@]3(C)[C@H](CC[C@@H]4[C@@]5(C)CC=C(c6ccc(C(=O)O)cc6)C(C)(C)[C@@H]5CC[C@]43C)[C@@H]12 [Example 9, 4-((1R,3aS,5aR,5bR,7aR,11aS,11bR,13aR,13bR)-3a-(4-((3S,4S)-4-(dimethylamino)tetrahydrofuran-3-yl)piperazine-1-carboxamido)-5a,5b,8,8,11a-pentamethyl-1-(prop-1-en-2-yl)-2,3,3a,4,5,5a,5b,6,7,7a,8,11,11a,11b,12,13,13a,13b-octadecahydro-1H-cyclopenta[a]chrysen-9-yl)benzoic acid] | 3 nM |
| C=C(C)[C@@H]1CC[C@]2(NC(=O)N[C@@H](CO)C(=O)O)CC[C@]3(C)[C@H](CC[C@@H]4[C@@]5(C)CC=C(c6ccc(C(=O)O)cc6)C(C)(C)[C@@H]5CC[C@]43C)[C@@H]12 [Example 18, 4-((1R,3aS,5aR,5bR,7aR,11aS,11bR,13aR,13bR)-3a-(3-((S)-1-carboxy-2-hydroxyethyl)ureido)-5a,5b,8,8,11a-pentamethyl-1-(prop-1-en-2-yl)-2,3,3a,4,5,5a,5b,6,7,7a,8,11,11a,11b,12,13,13a,13b-octadecahydro-1H-cyclopenta[a]chrysen-9-yl)benzoic acid] | 250 nM |
| C=C(C)[C@@H]1CC[C@]2(NC(=O)N[C@H](CO)C(=O)O)CC[C@]3(C)[C@H](CC[C@@H]4[C@@]5(C)CC=C(c6ccc(C(=O)O)cc6)C(C)(C)[C@@H]5CC[C@]43C)[C@@H]12 [Example 20, 4-((1R,3aS,5aR,5bR,7aR,11aS,11bR,13aR,13bR)-3a-(3-((R)-1-carboxy-2-hydroxyethyl)ureido)-5a,5b,8,8,11a-pentamethyl-1-(prop-1-en-2-yl)-2,3,3a,4,5,5a,5b,6,7,7a,8,11,11a,11b,12,13,13a,13b-octadecahydro-1H-cyclopenta[a]chrysen-9-yl)benzoic acid] | 400 nM |
